According to patent US6365572B1, “Low molecular weight peptide derivatives as inhibitors of the laminin/nidogen interaction” (Aventis Pharma Deutschland GmbH, priority 1999, dated 2002):
Read-outs that look alike come from different tables or passages of the source. Starred links: 1 amine or outer side, 2 acyl side, 3 side chain; linkers in the order of their positions; H or OH if unused. Non-standard residues stand in square brackets, D forms with d. Residues, ends and D or L forms follow the SMILES beside them. No end group written: not given here. ξ: configuration not given here. *: point of attachment. Bip = N[C@@H](Cc1ccc(-c2ccccc2)cc1)C(=O)O; 2Nal = N[C@@H](Cc1ccc2ccccc2c1)C(=O)O; NH(3-hydroxypropyl) = OCCCN*; Suc = O=C(CCC(=O)[*:2])[*:1]; ξN = NC(=O)CC(N)C(=O)O; Bn = c1ccc(C*)cc1

Columns and labels:
[1] = target: T1, laminin/nidogen interaction (laminin P1, recombinantly produced human nidogen) (Homo sapiens, UniProt P14543); assay: HTS screening assay (time-resolved fluorescence), inhibition of laminin/nidogen binding
T1 construct: made in house; host or cells: HEK-293
T1 sequence (P14543 29-1247): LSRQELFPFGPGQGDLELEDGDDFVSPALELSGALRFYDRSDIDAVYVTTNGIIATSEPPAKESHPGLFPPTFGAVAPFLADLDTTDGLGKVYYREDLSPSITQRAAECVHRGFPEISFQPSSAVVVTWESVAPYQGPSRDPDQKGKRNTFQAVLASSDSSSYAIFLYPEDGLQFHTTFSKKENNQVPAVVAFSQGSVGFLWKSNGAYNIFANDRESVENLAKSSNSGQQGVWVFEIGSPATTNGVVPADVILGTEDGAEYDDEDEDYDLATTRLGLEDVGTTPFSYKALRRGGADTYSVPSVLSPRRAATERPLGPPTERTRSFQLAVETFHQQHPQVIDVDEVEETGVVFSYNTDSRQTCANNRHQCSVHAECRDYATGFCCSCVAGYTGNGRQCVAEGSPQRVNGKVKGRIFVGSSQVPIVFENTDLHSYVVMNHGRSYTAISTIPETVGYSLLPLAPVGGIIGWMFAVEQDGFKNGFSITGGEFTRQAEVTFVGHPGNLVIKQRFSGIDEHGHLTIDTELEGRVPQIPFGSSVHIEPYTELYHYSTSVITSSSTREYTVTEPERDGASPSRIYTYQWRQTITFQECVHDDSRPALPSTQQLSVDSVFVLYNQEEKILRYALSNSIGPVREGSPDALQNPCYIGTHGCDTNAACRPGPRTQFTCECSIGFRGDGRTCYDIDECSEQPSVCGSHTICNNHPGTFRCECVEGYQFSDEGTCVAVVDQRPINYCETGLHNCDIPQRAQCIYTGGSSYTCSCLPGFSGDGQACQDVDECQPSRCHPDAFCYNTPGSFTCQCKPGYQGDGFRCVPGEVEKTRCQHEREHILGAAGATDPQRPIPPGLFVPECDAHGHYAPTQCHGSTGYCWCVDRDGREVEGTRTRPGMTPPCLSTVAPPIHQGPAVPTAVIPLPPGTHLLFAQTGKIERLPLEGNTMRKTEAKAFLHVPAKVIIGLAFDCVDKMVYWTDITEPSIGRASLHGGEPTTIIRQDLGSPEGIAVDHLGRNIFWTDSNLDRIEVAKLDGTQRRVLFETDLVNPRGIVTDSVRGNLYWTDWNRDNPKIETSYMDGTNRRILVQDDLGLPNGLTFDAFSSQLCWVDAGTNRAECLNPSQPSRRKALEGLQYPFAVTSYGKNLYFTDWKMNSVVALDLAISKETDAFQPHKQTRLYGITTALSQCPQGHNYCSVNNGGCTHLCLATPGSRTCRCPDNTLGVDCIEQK
Method: 5) The compound stocks were preincubated with nidogen (10 μl compound stock to 90 μl nidogen solution) and the assay was performed as described in the attached protocol, yielding a final screening concentration of 2.7 μM per compound. The isolation of laminin P1 from human placenta, human nidogen from transfected HEK-293 cells and mouse laminin γ1III 3-5 from HEK-293 cells is described in WO 98/31709. 3.1.1. HTS screening assay (highly sensitive assay variant): Time-Resolved Fluorescence Assay Coating of test tubes Microtiter plates (for example FluoroNunc®) were coated with 75 μl of a 0.1 μg/ml solution of laminin P1 (in 0.159 g of Na2CO3, 0.293 g of NaHCO3, 0.02 g of NaN3/liter, pH 9.2) at room temperature for 1 hour. The solution was then tipped off, and free binding sites were blocked by incubation with 0.5% BSA (in 7.9 g of NaCl, 1.2 g of Na2HPO4, 0.31 g of KCl, 0.23 g of NaH2PO4, 0.04% Tween 20/liter, pH 7.2) at room temperature for 0.5 hour. Completion of the blocking reaction was followed by decantation of the solution and washing once with 250 μl of washing buffer (PBS/0.04% Tween). Sequential inhibition In parallel with the coating, a preincubation of 85-100 μl of a 0.25 nM nidogen solution (recombinantly produced human nidogen) with inhibitor or standard was carried out in a separate reaction vessel (1 hour at room temperature in 7.9 g of NaCl, 1.2 g of Na2HPO4, 0.31 g of KCl, 0.23 g of NaH2PO4, 0.04% Tween 20/liter, 0.5% BSA, pH 7.2). 75 μl of the preincubation (nidogen+inhibitor or standard) were transferred into the coated wells of the microtiter plate and incubated at room temperature for 1 hour. This was followed by washing twice with PBS/0.04% Tween. Detection of the bound nidogen took place by incubation (at room temperature) for 1 hour with 75 μl of a specific antibody preparation obtained from yolks of eggs from a chicken immunized with human nidogen. The IgY fraction was used in a dilution of 1:500 in PBS/0.04% Tween. The complex of nidogen and specifically bound antibodies was, after washing twice with PBS/0.04% Tween, detected by adding anti-chicken IgY-biotin (75 μl of a 1:2500 dilution; Promega, Madison, Wis. 53711, 608-274-4330). An incubation time of 1 hour and washing twice with PBS/0.04% Tween were followed for this purpose by incubation with streptavidin-europium (Wallac; 1 hour at room temperature) and washing twice with PBS/0.04% Tween. It was finally possible, after adding 100 μl of enhancement solution (Wallac) and shaking for 5 minutes, to measure a fluorescence signal in a Victor multilabel counter using the europium protocol. The relation between the amount, of bound nidogen in the solutions with inhibitor and that of nidogen without added inhibitor was found.

[2] = target: T2, laminin/nidogen association (Homo sapiens, UniProt P14543); assay: Three-day equilibrium assay, inhibition of laminin/nidogen association; format: binding; conditions: Table 2, 3-day equilibrium assay variant
T2 sequence (P14543 29-1247): T1 sequence (P14543 29-1247)
Source text: 3.1.2. Three-day equilibrium assay Selected inhibitors were investigated for inhibitory activity in this assay variant. The assay is described in U.S. Pat. No. 5,493,008. The following table compares IC50 values of selected substances with the results of the HTS screening assay. It is clear that the 3-day assay gives slightly lower measured values and, as expected, is more sensitive than the screening assay. However, it is also clear from the comparison that inhibitory structures can be identified reliably with the screening assay developed by us.

[3] = Table 2, HTS assay variant, read-out: IC50, HTS assay
[4] = results table 1.3, synthesized compounds 1 to 43, read-out: IC50

Row | Compound | IC50 [1, 3] | IC50 [1, 4] | IC50 [2]
1 | CC(C)[C@H](NC(=O)[C@H](CO)NC(=O)[C@H](CC(N)=O)NC(=O)[C@H](Cc1ccc2ccccc2c1)NC(=O)CCC(=O)O)C(=O)NCC(=O)NCCCO [Compound 24, Succinyl-L-3-(2-naphthyl)alanyl-L-asparaginyl-L-seryl-L-valyl-glycine-3-hydroxypropylamide] (Suc-[2Nal]NSVG-{NH(3-hydroxypropyl)}) | 360 nM | 390 nM | 90 nM
2 | CC(C)[C@H](NC(=O)[C@H](C)NC(=O)[C@H](CC(N)=O)NC(=O)[C@H](Cc1ccc2ccccc2c1)NC(=O)CCC(=O)O)C(N)=O [Compound 31, Succinyl-L-3-(2-naphthyl)alanyl-L-asparaginyl-L-alanyl-L-valine-amide] (Suc-[2Nal]NAV-NH2) | 190 nM | 190 nM | 85 nM
3 | CC(C)[C@H](NC(=O)CNC(=O)[C@H](CC(N)=O)NC(=O)[C@H](Cc1ccc2ccccc2c1)NC(=O)CCC(=O)O)C(N)=O [Compound 33, Succinyl-L-3-(2-naphthyl)alanyl-L-asparaginyl-glycinyl-L-valine-amide] (Suc-[2Nal]NGV-NH2) | – | 720 nM | –
4 | CC(C)[C@H](NC(=O)[C@H](C)NC(=O)[C@H](CC(N)=O)NC(=O)[C@H](Cc1ccc(OCc2ccccc2)cc1)NC(=O)CCC(=O)O)C(N)=O [Compound 35, Succinyl-L-O-benzyl-tyrosyl-L-asparaginyl-L-alanyl-L-valine-amide] (Suc-Y(Bn)NAV-NH2) | – | 5020 nM | –
5 | CC(C)[C@H](NC(=O)[C@H](C)NC(=O)[C@H](CC(N)=O)NC(=O)[C@H](Cc1ccc(-c2ccccc2)cc1)NC(=O)CCC(=O)O)C(N)=O [Compound 36, Succinyl-L-3-(4-biphenyl)alanyl-L-asparaginyl-L-alanyl-L-valine-amide] (Suc-[Bip]NAV-NH2) | – | 2830 nM | –
6 | CC(C)[C@H](NC(=O)[C@H](C)NC(=O)[C@H](CC(N)=O)NC(=O)[C@H](Cc1ccc2ccccc2c1)NC(=O)CCC(=O)O)C(=O)O [Compound 37, Succinyl-L-3-(2-Naphthyl)alanyl-L-asparaginyl-L-alanyl-L-valine] (Suc-[2Nal]NAV-OH) | – | 830 nM | –
7 | CC(C)[C@@H](CO)NC(=O)[C@H](C)NC(=O)[C@H](CC(N)=O)NC(=O)[C@H](Cc1ccc2ccccc2c1)NC(=O)CCC(=O)O [Compound 38, Succinyl-L-3-(2-Naphthyl)alanyl-L-asparaginyl-L-alaninyl-L-valinol] | – | 260 nM | –
8 | CC(C)C(NC(=O)[C@H](C)NC(=O)[C@H](CC(N)=O)NC(=O)[C@H](Cc1ccc2ccccc2c1)NC(=O)CCC(=O)O)C(C)C [Compound 39, Succinyl-L-3-(2-Naphthyl)alanyl-L-asparaginyl-L-alanine-2,4-dimethylpentylamide] | – | 1500 nM | –
9 | C[C@H](NC(=O)[C@H](CC(N)=O)NC(=O)[C@H](Cc1ccc2ccccc2c1)NC(=O)CCC(=O)O)C(=O)NCC(C)(C)C [Compound 40, Succinyl-L-3-(2-Naphthyl)alanyl-L-asparaginyl-L-alanine-neopentylamide] | – | 1160 nM | –
10 | C[C@H](NC(=O)[C@H](CC(N)=O)NC(=O)[C@H](Cc1ccc2ccccc2c1)NC(=O)CCC(=O)O)C(=O)N1CCCC(C)(C)C1 [Compound 41, Succinyl-L-3-(2-Naphthyl)alanyl-L-asparaginyl-L-alanine-3,3-dimethylpiperidinylamide] | – | 8170 nM | –
11 | CC(C)[C@H](NC(=O)[C@H](C)NC(=O)[C@H](CC(N)=O)NC(=O)[C@H](Cc1ccc2ccccc2c1)NC(=O)CCC(=O)O)C(=O)N(C)C [Compound 42, Succinyl-L-3-(2-Naphthyl)alanyl-L-asparaginyl-L-alanyl-L-valine-dimethylamide] (Suc-[2Nal]NAV-NMe2) | – | 240 nM | –
12 | CC[C@H](C)[C@H](NC(=O)C(N)CC(N)=O)C(=O)N[C@@H](CC(=O)O)C(=O)N1CCC[C@H]1C(=O)N[C@@H](CC(N)=O)C(=O)N[C@@H](C)C(=O)N[C@H](C(=O)O)C(C)C (stereo partly drawn) [NIDPNAV, Asn-lie-Asp-Pro-Asn-Ala-Val, reference compound] (H-[ξN]IDPNAV-OH) | 3900 nM | – | 1200 nM
13 | DPNAV [DPNAV, reference compound] | 7700 nM | – | 5000 nM
